In the NIST ThermoML archive (doi:10.1021/acs.jced.5b00105):

Assay: refractive index (Na D-line) (dimensionless); xn = mol fraction of the nth substance listed
Conditions: 100 kPa, Liquid

CCCCC1CCCCC1 [butylcyclohexane] + CC(C)CC(C)(C)C
refractive index
Conditions	293.15 K	298.15 K	303.15 K	308.15 K	313.15 K	318.15 K	323.15 K
x1 = 0.0999	1.3972	–	1.3928	–	1.3884	–	–
x1 = 0.1008	–	1.3944	–	1.3898	–	1.3849	1.3824
x1 = 0.2	–	1.4001	–	1.3953	–	1.3907	1.3885
x1 = 0.2002	1.4026	–	1.3981	–	1.3935	–	–
x1 = 0.3001	1.4079	1.4055	1.4034	1.4008	1.3988	1.3959	1.3943
x1 = 0.3996	1.413	–	1.4087	–	1.4042	–	–
x1 = 0.3999	–	1.4105	–	1.4057	–	1.4015	1.3993
x1 = 0.5004	–	1.4155	–	1.4112	–	1.4069	1.4045
x1 = 0.5005	1.4181	–	1.4139	–	1.4094	–	–
x1 = 0.5999	–	1.4204	–	1.4158	–	1.4118	1.4093
x1 = 0.6003	1.423	–	1.4186	–	1.4141	–	–
x1 = 0.6994	1.4276	–	1.423	–	1.4185	–	–
x1 = 0.6995	–	1.4249	–	1.4207	–	1.4161	1.4145
x1 = 0.7998	–	1.4295	–	1.4249	–	1.4208	1.4184
x1 = 0.8	1.4321	–	1.4274	–	1.4229	–	–
x1 = 0.9	–	1.4335	–	1.4292	–	1.4248	1.4229
x1 = 0.9001	1.4362	–	1.4314	–	1.4271	–	–
x1 = 1	1.4403	1.4377	1.4355	1.4333	1.4314	1.429	1.4268
